# According to ChEMBL document CHEMBL4028877, “Targets for Drug Therapy for Autism Spectrum Disorder: Challenges and Future Directions” (J Med Chem, 2017):
# pEC50, pKi: −log10 of the molar value.
# Columns and labels:
# [1] = biological target: Glutamate receptor ionotropic, NMDA 2A (Rattus norvegicus) (UniProt Q00959); experiment: Antagonist activity at GluN2A in rat primary pyramidal neurons assessed as inhibition of NMDA/glycine-induced current amplitude at 10 uM at holding potential of -70 mV by patch-clamp electrophysiology assay
# Chain of Glutamate receptor ionotropic, NMDA 2A (Rattus norvegicus) (Q00959 23-1464 limits assumed): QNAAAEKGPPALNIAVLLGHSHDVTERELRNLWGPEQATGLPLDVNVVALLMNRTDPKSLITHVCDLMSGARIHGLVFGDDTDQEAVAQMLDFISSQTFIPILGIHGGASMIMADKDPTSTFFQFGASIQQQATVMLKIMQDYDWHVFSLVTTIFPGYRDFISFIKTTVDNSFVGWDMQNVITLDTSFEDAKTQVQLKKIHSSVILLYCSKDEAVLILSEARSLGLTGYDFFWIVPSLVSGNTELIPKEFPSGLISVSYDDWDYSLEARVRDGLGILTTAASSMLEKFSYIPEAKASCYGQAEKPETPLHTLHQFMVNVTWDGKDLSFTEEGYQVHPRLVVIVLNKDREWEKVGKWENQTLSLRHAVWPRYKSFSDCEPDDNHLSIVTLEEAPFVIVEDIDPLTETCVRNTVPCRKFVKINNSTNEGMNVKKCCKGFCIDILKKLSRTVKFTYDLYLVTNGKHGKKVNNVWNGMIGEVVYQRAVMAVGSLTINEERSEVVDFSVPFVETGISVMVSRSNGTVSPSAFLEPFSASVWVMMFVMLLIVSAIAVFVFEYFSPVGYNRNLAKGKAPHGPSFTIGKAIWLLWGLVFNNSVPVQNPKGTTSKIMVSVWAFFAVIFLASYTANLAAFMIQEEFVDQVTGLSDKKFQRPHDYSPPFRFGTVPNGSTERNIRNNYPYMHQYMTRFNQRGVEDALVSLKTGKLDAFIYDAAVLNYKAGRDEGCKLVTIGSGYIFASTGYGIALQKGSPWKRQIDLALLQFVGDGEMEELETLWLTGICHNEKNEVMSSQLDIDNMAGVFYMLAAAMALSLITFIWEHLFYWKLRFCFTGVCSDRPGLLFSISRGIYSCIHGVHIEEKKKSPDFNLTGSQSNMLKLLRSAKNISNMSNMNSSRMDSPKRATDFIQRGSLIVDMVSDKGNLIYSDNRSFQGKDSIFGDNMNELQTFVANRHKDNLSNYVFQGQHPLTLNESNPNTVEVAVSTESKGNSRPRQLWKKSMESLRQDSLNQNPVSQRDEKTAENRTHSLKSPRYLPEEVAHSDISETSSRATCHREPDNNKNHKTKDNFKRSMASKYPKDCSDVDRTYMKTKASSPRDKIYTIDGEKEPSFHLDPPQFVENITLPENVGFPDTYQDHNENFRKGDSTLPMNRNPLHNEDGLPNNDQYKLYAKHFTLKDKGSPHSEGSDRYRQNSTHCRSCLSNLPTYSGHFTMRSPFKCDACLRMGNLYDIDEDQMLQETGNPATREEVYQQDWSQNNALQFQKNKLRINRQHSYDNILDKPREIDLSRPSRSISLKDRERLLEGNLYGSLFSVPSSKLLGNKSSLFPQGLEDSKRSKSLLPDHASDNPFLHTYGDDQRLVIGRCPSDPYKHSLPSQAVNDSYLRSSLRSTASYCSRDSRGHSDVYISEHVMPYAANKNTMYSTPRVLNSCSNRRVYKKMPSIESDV
# [2] = biological target: Glutamate receptor ionotropic, NMDA 2A (Rattus norvegicus) (UniProt Q00959); experiment: Antagonist activity at GluN2A in CA1 region of Sprague-Dawley rat hippocampal slices assessed as inhibition of schaffer collateral input-stimulated field excitatory postsynaptic potential at 30 to 50 uM after 40 mins by electrophysiology assay
# Oxytocin receptor [3] = biological target: T1, Oxytocin receptor (Mus musculus, UniProt P97926); experiment: Agonist activity at recombinant mouse OTR expressed in CHO-K1 cells assessed as induction of Ca2+ mobilization after overnight incubation by FLIPR assay; format: functional, cell-based
# T1 sequence (P97926 whole entry): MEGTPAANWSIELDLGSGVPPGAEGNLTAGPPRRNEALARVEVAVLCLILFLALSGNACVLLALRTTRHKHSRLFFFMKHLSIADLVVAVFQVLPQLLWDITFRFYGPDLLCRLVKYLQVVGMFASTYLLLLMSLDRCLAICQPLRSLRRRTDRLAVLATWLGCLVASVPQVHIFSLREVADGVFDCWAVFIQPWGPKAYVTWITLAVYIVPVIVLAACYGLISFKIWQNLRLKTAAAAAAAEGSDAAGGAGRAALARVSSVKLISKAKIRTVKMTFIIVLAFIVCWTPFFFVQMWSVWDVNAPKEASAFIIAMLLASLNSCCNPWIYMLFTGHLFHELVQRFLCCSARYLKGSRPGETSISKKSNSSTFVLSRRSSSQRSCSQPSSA
# Oxytocin receptor [4] = biological target: T1, Oxytocin receptor; experiment: Displacement of [Tyrosyl-2,6-3H]Oxytocin from recombinant mouse OTR expressed in CHO-K1 cells after 180 mins by liquid scintillation counting method; format: cell-based
SMILES,inhibition [1] [%],inhibition [2] [%],pEC50 (Oxytocin receptor [3]),pKi (Oxytocin receptor [4])
Cc1ncc(CNC(=O)c2cnc(CNS(=O)(=O)c3ccc(F)c(Cl)c3)cn2)s1,30,60,–,–
Cc1ncc(CNC(=O)c2cnc(CNS(=O)(=O)c3ccc(F)c(F)c3)c(C)n2)s1,30,60,–,–
Cc1cc(C(=O)N2Cc3cnn(C)c3Nc3ccccc32)ccc1CNC(=O)N1CCN(Cc2cc(O)cc(O)c2)CC1,–,–,7.54,7.29
